{"source": "patent US8367695B2", "about": "“Condensed tetrahydroquinoline derivative and use thereof for medical purposes” (Mitsubishi Tanabe Pharma Corporation, priority 2007, dated 2013)", "molecular_target": "T1, human recombinant progesterone receptor-B (PRB) (Homo sapiens, UniProt P06401)", "T1 construct": "purchased Invitrogen (Carlsbad, Calif.)", "T1 sequence (P06401 1-933)": "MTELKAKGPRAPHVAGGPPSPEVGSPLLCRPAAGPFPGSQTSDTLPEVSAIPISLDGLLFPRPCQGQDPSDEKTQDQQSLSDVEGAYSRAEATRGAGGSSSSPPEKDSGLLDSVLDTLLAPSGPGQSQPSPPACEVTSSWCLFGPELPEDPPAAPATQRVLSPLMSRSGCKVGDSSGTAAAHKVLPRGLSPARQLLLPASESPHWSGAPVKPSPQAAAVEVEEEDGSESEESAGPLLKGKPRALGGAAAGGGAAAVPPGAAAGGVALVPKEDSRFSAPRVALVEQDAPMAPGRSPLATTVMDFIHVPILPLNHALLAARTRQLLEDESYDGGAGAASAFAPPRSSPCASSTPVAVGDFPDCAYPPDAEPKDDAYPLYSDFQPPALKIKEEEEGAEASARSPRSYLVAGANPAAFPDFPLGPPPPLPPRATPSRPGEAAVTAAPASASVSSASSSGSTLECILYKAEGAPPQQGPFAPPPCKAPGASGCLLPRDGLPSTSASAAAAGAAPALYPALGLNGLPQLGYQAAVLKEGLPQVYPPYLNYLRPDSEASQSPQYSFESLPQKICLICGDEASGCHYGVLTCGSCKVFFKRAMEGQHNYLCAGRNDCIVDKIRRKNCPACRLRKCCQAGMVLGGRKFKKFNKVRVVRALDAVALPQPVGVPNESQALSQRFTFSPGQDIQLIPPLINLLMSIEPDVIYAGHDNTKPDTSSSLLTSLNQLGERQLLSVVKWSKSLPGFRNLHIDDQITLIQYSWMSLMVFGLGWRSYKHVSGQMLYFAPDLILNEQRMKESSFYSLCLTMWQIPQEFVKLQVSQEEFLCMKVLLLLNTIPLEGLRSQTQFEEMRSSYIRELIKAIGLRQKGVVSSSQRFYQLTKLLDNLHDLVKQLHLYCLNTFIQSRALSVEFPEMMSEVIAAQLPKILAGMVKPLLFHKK", "experiment": "Radioactive ligand binding test, PRB cytosol, [3H]-Prog", "from_the_text": "Radioactive Ligand Binding Test Using Cytosols of Human Glucocorticoids Receptor, Progesterone Receptor and Mineralocorticoid Receptor\nThe procedures described in Neuroimmunomodulation (1994, 1, p. 66-73) and Invest. Opthalmol. Vis. Sci. (1996, 37, p. 805-813) were modified and used. In brief, cytosol preparations of human recombinant glucocorticoids receptor (GR) and human recombinant progesterone receptor-B (PRB) were purchased from Invitrogen (Carlsbad, Calif.), and a cytosol preparation of human recombinant mineralocorticoid receptor (MR) was prepared by our company (Yokohama, JP). MR cDNA was cloned into a baculovirus expression vector and expressed in insect cell Sf9. The procedures described in J. Biol. Chem. (1991, 266, p. 18072-18081), Proc. Natl. Acad. Sci. USA (1991, 88, p. 10681-10685) and Bac-to-Bac (registered trade mark) Baculovirus Expression Systems technical manual (Invitrogen) were partly modified and used as the procedures for MR gene cloning up to preparation of recombinant receptor cytosol. [^3H]-Dexamethasone (Dex, specific activity 91.0 Ci/mmol) was purchased from GE Healthcare (Buckinghamshire, UK), and [^3H]-progesterone (Prog, specific activity 103 Ci/mmol) and [3H]-aldosterone (Ald, specific activity 87.9 Ci/mmol) were each purchased from PerkinElmer (Boston, Mass.). Polypropylene round-bottomed 96 well plate was obtained from ABgene (Epsom, UK). Dimethyl Sulfoxide (DMSO) and hydrochloric acid were obtained from Kanto Chemical (TOKYO, JP). Trizma Base (Tris), Bovine Serum Albumin (BSA) and Sodium tungstate dihydrate were obtained from Sigma Chemicals (St. Louis, Mo.). Dithiothreitol (DTT) and Dextran 70 were obtained from GE Healthcare (Buckinghamshire, UK). Glycerol was obtained from Junsei Chemical (TOKYO, JP). Norit® “SX-II” was obtained from Wako Pure Chemical Industries, Ltd. (Osaka, JP). MeltiLex™, A, Printed Filtermat A and Sample Bag were obtained from PerkinElmer (Boston, Mass.).\nAs a buffer for GR binding assay, 25 mM Tris-HCl (4° C., pH 7.4)/1 mM EDTA·2Na/1 mM DTT/0.1% BSA was prepared and used. As buffers for PRB and MR binding assay, 10 mM Tris-HCl (4° C., pH 7.4)/1 mM DTT/0.1% BSA/10% glycerol and 20 mM Tris-HCl (4° C., pH 7.4)/1 mM EDTA·2Na/10% glycerol/20 mM sodium tungstate were respectively prepared and used. As dextran-coated charcoal (DCC) for B/F separation, 0.75% Dextran 70/0.75% Norit® SX-II/10 mM Tris-HCl (4° C., pH 7.4) was prepared and used.\nCompound storage solutions (5-20 mM) were prepared using DMSO. The storage solutions were diluted with DMSO to 0.1 mM (for GR) and 0.3 mM (for PRB and MR), and further diluted 20-fold with distilled water to give solutions. Then, the preparations were diluted to each concentration with 5% DMSO solution. 1% DMSO was present at the time of the binding assay.\nIn the case of PRB binding assay, [^3H]-Prog (about 5 nM), PRB cytosol (concentration of function receptor: about 4 pmol/mL), a test compound and a binding buffer were mixed in a total volume of 50 μL, and the mixture was stood at 4° C. for 30 min or longer. A specific binding was defined to be the difference in the [^3H]-Prog binding between the presence and the absence of 1 μM unlabeled Prog.\nAfter the reaction, 50 μL of DCC was added to each well and blended. Thereafter, the mixture was stood at 4° C. for 10 min. The plate was applied to high-speed cooling centrifuge under the conditions of 4° C., 2000 rpm, 5 min to perform B/F separation. A given amount of the supernatant was recovered, which was spotted on Filtermat A of 96 well format (PerkinElmer) and rapidly dried at a high temperature. Then, solid scintillator MeltiLex A (PerkinElmer) was melted on Filtermat A. The mixture was placed in a Sample Bag (PerkinElmer), and the level of radioactivity was measured by plate reader 1450 Micro Beta TRILUX (PerkinElmer).\nMeasurement of Inhibition Constant (Ki)", "key": {"[1]": {"details": "[3H]-Prog about 5 nM, PRB cytosol, 4° C., Cheng-Prusoff, Kd about 3.5 nM, read-out: PR (Ki: nM)"}}, "note": "Like-named read-outs stand apart in the source and are kept apart here.", "data": [{"smiles": "Cc1noc(C)c1-c1cc2c(c3c1CCC3)NC(C)(C)C(=O)C2(C)C", "note": "[Example 2, 6-(3,5-dimethylisoxazol-4-yl)-2,2,4,4-tetramethyl-2,3,4,7,8,9-hexahydro-1H-cyclopenta[h]quinolin-3-one]", "values": [{"measurement": "Ki", "setting": "[1]", "value": "> 1250", "unit": "nM"}]}, {"smiles": "Cc1nnn(C)c1-c1cc2c(c3c1CCC3)NC(C)(C)C(=O)C2(C)C", "note": "[Example 4, 6-(3,5-dimethyl-3H-[1,2,3]triazol-4-yl)-2,2,4,4-tetramethyl-2,3,4,7,8,9-hexahydro-1H-cyclopenta[h]quinolin-3-one]", "values": [{"measurement": "Ki", "setting": "[1]", "value": "> 1250", "unit": "nM"}]}, {"smiles": "CC1(C)Nc2c(cc(-c3ccnc4cc[nH]c34)c3c2CCC3)C(C)(C)C1=O", "note": "[Example 13, 2,2,4,4-tetramethyl-6-(1H-pyrrolo[3,2-b]pyridin-7-yl)-2,3,4,7,8,9-hexahydro-1H-cyclopenta[h]quinolin-3-one]", "values": [{"measurement": "Ki", "setting": "[1]", "value": "> 1250", "unit": "nM"}]}, {"smiles": "CC1(C)Nc2c(cc(-c3cccc4nccn34)c3c2CCC3)C(C)(C)C1=O", "note": "[Example 14, 6-(imidazo[1,2-a]pyridin-5-yl)-2,2,4,4-tetramethyl-2,3,4,7,8,9-hexahydro-1H-cyclopenta[h]quinolin-3-one]", "values": [{"measurement": "Ki", "setting": "[1]", "value": "> 1250", "unit": "nM"}]}, {"smiles": "CC1(C)Nc2c(cc(-c3cccc4nncn34)c3c2CCC3)C(C)(C)C1=O", "note": "[Example 17, 2,2,4,4-tetramethyl-6-([1,2,4]triazolo[4,3-a]pyridin-5-yl)-2,3,4,7,8,9-hexahydro-1H-cyclopenta[h]quinolin-3-one]", "values": [{"measurement": "Ki", "value": "> 1250", "unit": "nM"}]}, {"smiles": "CC1(C)Nc2c(cc(-c3cccc4ncccc34)c3c2CCC3)C(C)(C)C1=O", "note": "[Example 20, 2,2,4,4-tetramethyl-6-(quinolin-5-yl)-2,3,4,7,8,9-hexahydro-1H-cyclopenta[h]quinolin-3-one]", "values": [{"measurement": "Ki", "setting": "[1]", "value": "> 1250", "unit": "nM"}]}, {"smiles": "CC1(C)Nc2c(cc(-c3ccnc4ncccc34)c3c2CCC3)C(C)(C)C1=O", "note": "[Example 21, 2,2,4,4-tetramethyl-6-([1,8]naphthyridin-4-yl)-2,3,4,7,8,9-hexahydro-1H-cyclopenta[h]quinolin-3-one]", "values": [{"measurement": "Ki", "setting": "[1]", "value": "> 1250", "unit": "nM"}]}, {"smiles": "C=C1C(C)(C)Nc2c(cc(-c3c(C)ncn3C)c3c2CCC3)C1(C)C", "note": "[Example 29, 6-(3,5-dimethyl-3H-imidazol-4-yl)-2,2,4,4-tetramethyl-3-methylene-2,3,4,7,8,9-hexahydro-1H-cyclopenta[h]quinoline]", "values": [{"measurement": "Ki", "setting": "[1]", "value": "> 1250", "unit": "nM"}]}, {"smiles": "C=CCC1(C)C(=O)C(C)(C)Nc2c1cc(-c1ccc(O)cc1C)c1c2CCC1", "note": "(stereo not drawn) [Example 50, 4-allyl-6-(4-hydroxy-2-methylphenyl)-2,2,4-trimethyl-2,3,4,7,8,9-hexahydro-1H-cyclopenta[h]quinolin-3-one]", "values": [{"measurement": "Ki", "setting": "[1]", "value": "> 1250", "unit": "nM"}]}, {"smiles": "C=CCC1(C)C(=O)C(C)(C)Nc2c1cc(-c1c(C)noc1C)c1c2CCC1", "note": "(stereo not drawn) [Example 51, 4-allyl-6-(3,5-dimethylisoxazol-4-yl)-2,2,4-trimethyl-2,3,4,7,8,9-hexahydro-1H-cyclopenta[h]quinolin-3-one]", "values": [{"measurement": "Ki", "setting": "[1]", "value": "> 1250", "unit": "nM"}]}, {"smiles": "C=CCC1(C)C(=O)C(C)(C)Nc2c1cc(-c1cccc3nccn13)c1c2CCC1", "note": "(stereo not drawn) [Example 57, 4-allyl-6-(imidazo[1,2-a]pyridin-5-yl)-2,2,4-trimethyl-2,3,4,7,8,9-hexahydro-1H-cyclopenta[h]quinolin-3-one]", "values": [{"measurement": "Ki", "setting": "[1]", "value": "> 1250", "unit": "nM"}]}, {"smiles": "CCC1(C)C(=O)C(C)(C)Nc2c1cc(-c1cccc3nccn13)c1c2CCC1", "note": "(stereo not drawn) [Example 58, 4-ethyl-6-(imidazo[1,2-s]pyridin-5-yl)-2,2,4-trimethyl-2,3,4,7,8,9-hexahydro-1H-cyclopenta[h]quinolin-3-one]", "values": [{"measurement": "Ki", "setting": "[1]", "value": 1010, "unit": "nM"}]}, {"smiles": "CC#CCC1(C)C(=O)C(C)(C)Nc2c1cc(-c1cccc3nccn13)c1c2CCC1", "note": "(stereo not drawn) [Example 63, 4-(2-butynyl)-6-(imidazo[1,2-a]pyridin-5-yl)-2,2,4-trimethyl-2,3,4,7,8,9-hexahydro-1H-cyclopenta[h]quinolin-3-one]", "values": [{"measurement": "Ki", "setting": "[1]", "value": "> 1250", "unit": "nM"}]}, {"smiles": "Cc1noc(C)c1-c1cc2c(c3c1OCO3)NC(C)(C)C(=O)C2(C)C", "note": "[Example 69, 4-(3,5-dimethylisoxazol-4-yl)-6,6,8,8-tetramethyl-6,7,8,9-tetrahydro-[1,3]dioxolo[4,5-h]quinolin-7-one]", "values": [{"measurement": "Ki", "setting": "[1]", "value": "> 1250", "unit": "nM"}]}, {"smiles": "CC1(C)Nc2c(cc(-c3cccc4nccn34)c3c2OCO3)C(C)(C)C1=O", "note": "[Example 71, 4-(imidazo[1,2-a]pyridin-5-yl)-6,6,8,8-tetramethyl-6,7,8,9-tetrahydro-[1,3]dioxolo[4,5-h]quinolin-7-one]", "values": [{"measurement": "Ki", "setting": "[1]", "value": "> 1250", "unit": "nM"}]}, {"smiles": "CC1(C)Nc2c(cc(-c3cccc4ncccc34)c3c2OCO3)C(C)(C)C1=O", "note": "[Example 72, 6,6,8,8-tetramethyl-4-(quinolin-5-yl)-6,7,8,9-tetrahydro-[1,3]dioxolo[4,5-h]quinolin-7-one]", "values": [{"measurement": "Ki", "setting": "[1]", "value": "> 1250", "unit": "nM"}]}, {"smiles": "C=CCC1(C)C(=O)C(C)(C)Nc2c1cc(-c1cccc3cc[nH]c13)c1c2OCO1", "note": "(stereo not drawn) [Example 78, 6-allyl-4-(1H-indol-7-yl)-6,8,8-trimethyl-6,7,8,9-tetrahydro-[1,3]dioxolo[4,5-h]quinolin-7-one]", "values": [{"measurement": "Ki", "value": "> 1250", "unit": "nM"}]}, {"smiles": "CC1(C)Nc2c(cc(-c3cccc4nccn34)c3c2OC(F)(F)O3)C(C)(C)C1=O", "note": "[Example 82, 2,2-difluoro-4-(imidazo[1,2-a]pyridin-5-yl)-6,6,8,8-tetramethyl-6,7,8,9-tetrahydro-[1,3]dioxolo[4,5-h]quinolin-7-one]", "values": [{"measurement": "Ki", "setting": "[1]", "value": "> 1250", "unit": "nM"}]}, {"smiles": "Cc1noc(C)c1-c1cc2c(c3c1OCC3)NC(C)(C)C(=O)C2(C)C", "note": "[Example 84, 6-(3,5-dimethylisoxazol-4-yl)-2,2,4,4-tetramethyl-1,2,3,4,8,9-hexahydro-furo[2,3-h]quinolin-3-one]", "values": [{"measurement": "Ki", "setting": "[1]", "value": "> 1250", "unit": "nM"}]}, {"smiles": "CC1(C)Nc2c(cc(-c3cccc4nccn34)c3c2CCO3)C(C)(C)C1=O", "note": "[Example 88, 6-(imidazo[1,2-a]pyridin-5-yl)-2,2,4,4-tetramethyl-1,2,3,4,8,9-hexahydro-furo[2,3-h]quinolin-3-one]", "values": [{"measurement": "Ki", "setting": "[1]", "value": "> 1250", "unit": "nM"}]}, {"smiles": "CC1(C)Nc2c(cc(-c3ccnc4ncccc34)c3c2CCO3)C(C)(C)C1=O", "note": "[Example 92, 2,2,4,4-tetramethyl-6-([1,8]naphthyridin-4-yl)-1,2,3,4,8,9-hexahydro-furo[2,3-h]quinolin-3-one]", "values": [{"measurement": "Ki", "setting": "[1]", "value": "> 1250", "unit": "nM"}]}]}
